According to the supplement of paper PMC10307832:

How the values were obtained:
Experiment in all cases: relative viability (nuclei count vs DMSO), 5 days (fraction); higher = more cells survive
Pemetrexed + Tozasertib = compound: Nc1nc2[nH]cc(CCc3ccc(C(=O)N[C@@H](CCC(=O)O)C(=O)O)cc3)c2c(=O)[nH]1 [Pemetrexed] + Cc1cc(Nc2cc(N3CCN(C)CC3)nc(Sc3ccc(NC(=O)C4CC4)cc3)n2)n[nH]1 [Tozasertib] (partner 0.1 µM)
How it was run: (§1)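 The day after seeding in 1536-well plates, lung cancer cell lines were treated by pin tool with a single drug, or with a fixed anchor-drug dose together with five library-drug doses (not always all listed) in √10 steps. After 5 days, a combined fix-and-stain solution (final 0.05% Triton X-100, 1% formaldehyde, 1 ug/ml Hoechst) was added. Nuclei counted on 4× images gave relative viability as treated counts over vehicle counts, reported as the median of duplicate plates.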

Pemetrexed + Navitoclax = compound: Nc1nc2[nH]cc(CCc3ccc(C(=O)N[C@@H](CCC(=O)O)C(=O)O)cc3)c2c(=O)[nH]1 [Pemetrexed] + CC1(C)CCC(c2ccc(Cl)cc2)=C(CN2CCN(c3ccc(C(=O)NS(=O)(=O)c4ccc(N[C@H](CCN5CCOCC5)CSc5ccccc5)c(S(=O)(=O)C(F)(F)F)c4)cc3)CC2)C1 [Navitoclax] (partner 0.5 µM)
How it was run: as §1

Idelalisib + Linsitinib = compound: CC[C@H](Nc1ncnc2[nH]cnc12)c1nc2cccc(F)c2c(=O)n1-c1ccccc1 [Idelalisib] + C[C@]1(O)C[C@@H](c2nc(-c3ccc4ccc(-c5ccccc5)nc4c3)c3c(N)nccn32)C1 [Linsitinib] (partner 1 µM)
How it was run: as §1

Idelalisib + Alpelisib = compound: CC[C@H](Nc1ncnc2[nH]cnc12)c1nc2cccc(F)c2c(=O)n1-c1ccccc1 [Idelalisib] + Cc1nc(NC(=O)N2CCC[C@H]2C(N)=O)sc1-c1ccnc(C(C)(C)C(F)(F)F)c1 [Alpelisib] (partner 2 µM)
How it was run: as §1

Row | Cell Line | relative viability (Pemetrexed + Tozasertib; first compound 0.002 µM) | relative viability (Pemetrexed + Tozasertib; first compound 0.006325 µM) | relative viability (Pemetrexed + Tozasertib; first compound 0.02 µM) | relative viability (Pemetrexed + Tozasertib; first compound 0.06325 µM) | relative viability (Pemetrexed + Tozasertib; first compound 0.2 µM) | relative viability (Pemetrexed + Navitoclax; first compound 0.002 µM) | relative viability (Pemetrexed + Navitoclax; first compound 0.006325 µM) | relative viability (Pemetrexed + Navitoclax; first compound 0.02 µM) | relative viability (Pemetrexed + Navitoclax; first compound 0.06325 µM) | relative viability (Pemetrexed + Navitoclax; first compound 0.2 µM) | relative viability (Idelalisib + Linsitinib; first compound 0.04 µM) | relative viability (Idelalisib + Linsitinib; first compound 0.1265 µM) | relative viability (Idelalisib + Linsitinib; first compound 0.4 µM) | relative viability (Idelalisib + Linsitinib; first compound 1.265 µM) | relative viability (Idelalisib + Linsitinib; first compound 4 µM) | relative viability (Idelalisib + Alpelisib; first compound 0.04 µM) | relative viability (Idelalisib + Alpelisib; first compound 0.1265 µM) | relative viability (Idelalisib + Alpelisib; first compound 0.4 µM) | relative viability (Idelalisib + Alpelisib; first compound 1.265 µM) | relative viability (Idelalisib + Alpelisib; first compound 4 µM)
1 | PC-3 [JPC-3] | 0.82 | 0.939 | 0.895 | 0.878 | 0.861 | 0.726 | 0.762 | 0.796 | 0.89 | 0.749 | 0.972 | 0.976 | 0.986 | 0.95 | 0.893 | 1.11 | 1.02 | 0.981 | 0.963 | 0.855
2 | NCI-H1355 | 0.532 | 0.516 | 0.554 | 0.632 | 0.586 | 0.86 | 0.885 | 0.951 | 0.942 | 0.872 | 0.893 | 0.789 | 0.599 | 0.701 | 0.596 | 0.956 | 0.767 | 0.751 | 0.679 | 0.568
3 | NCI-H727 | 0.6 | 0.584 | 0.498 | 0.738 | 0.61 | 0.422 | 0.474 | 0.583 | 0.428 | 0.527 | 0.318 | 0.296 | 0.281 | 0.402 | 0.267 | 0.643 | 0.69 | 0.499 | 0.588 | 0.622
4 | NCI-H1975 | 0.756 | 0.752 | 0.768 | 0.704 | 0.297 |  | 1.19 | 1.1 | 1.1 | 0.731 | 0.98 | 1.03 | 0.882 | 0.937 | 0.772 | 0.681 | 0.609 | 0.552 | 0.613 | 0.4
5 | NCI-H460 | 0.108 | 0.48 | 0.511 | 0.272 | 0.0837 | 0.945 | 1.1 | 1.33 | 0.388 | 0.0669 | 0.834 | 0.801 | 0.624 | 0.681 | 0.56 | 0.566 | 0.521 | 0.426 | 0.324 | 0.291
6 | EPLC-272H | 0.284 | 0.261 | 0.225 | 0.251 | 0.306 | 1.24 | 1.05 | 1.19 | 1.12 | 1.05 | 1.49 | 0.996 | 0.977 | 1.13 | 0.976 | 0.617 | 0.9 | 0.767 | 0.74 | 0.669
7 | SK-LU-1 | 0.303 | 0.324 | 0.374 | 0.378 | 0.333 | 0.881 | 0.813 | 0.791 | 0.901 | 0.817 | 1.17 | 1.15 | 0.916 | 1.02 | 0.973 | 1.43 | 1.12 | 0.886 | 0.876 | 0.968
8 | NCI-H322M | 0.513 | 0.505 | 0.486 | 0.504 | 0.452 | 1.16 | 1.25 | 1.17 | 1.15 | 1.14 | 0.971 | 0.924 | 0.801 | 0.642 | 0.692 | 0.826 | 0.764 | 0.632 | 0.62 | 0.716
9 | NCI-H2405 | 0.75 | 0.738 | 0.832 | 0.778 | 0.694 | 1.13 | 0.882 | 0.907 | 0.778 | 0.776 | 1.08 | 0.851 | 0.733 | 0.736 | 0.69 | 0.811 | 0.642 | 0.537 | 0.683 | 0.544
10 | NCI-H1666 | 0.582 | 0.554 | 0.633 | 0.593 | 0.598 | 0.877 | 0.717 | 0.915 | 0.711 | 0.419 | 0.881 | 0.873 | 0.73 | 0.629 | 0.552 | 1.03 | 0.909 | 0.89 | 0.888 | 0.747
11 | H3255 | 0.653 | 0.707 | 0.754 | 0.709 | 0.555 | 0.325 | 0.508 | 0.537 | 0.526 | 0.464 | 0.959 | 1.01 | 0.829 | 0.857 | 0.801 | 0.652 | 0.683 | 0.591 | 0.518 | 0.607
12 | NCI-H2347 | 0.337 | 0.516 | 0.595 | 0.589 | 0.356 | 0.659 | 0.805 | 0.776 | 0.619 | 0.391 | 0.931 | 0.884 | 0.857 | 1.14 | 0.514 | 0.964 | 1 | 0.989 | 1.07 | 0.881
13 | LK-2 | 0.191 | 0.148 | 0.176 | 0.197 | 0.165 | 0.835 | 0.844 | 0.823 | 0.8 | 0.592 | 0.531 | 0.418 | 0.5 | 0.518 | 0.419 | 1.16 | 1.17 |  | 1.09 | 1.11
14 | HCC-15 | 0.431 | 0.394 | 0.497 | 0.407 | 0.205 | 0.701 | 0.668 | 0.702 | 0.588 | 0.482 | 0.909 | 0.866 | 0.857 | 0.89 | 0.873 | 1.07 | 0.884 | 0.794 | 0.912 | 0.83
15 | SW 1573 | 0.241 | 0.197 | 0.201 | 0.139 | 0.178 | 1.11 | 0.927 | 0.987 | 0.889 | 0.902 | 0.781 | 0.792 | 0.728 | 0.625 | 0.558 | 0.822 | 0.612 | 0.711 | 0.729 | 0.633
16 | NCI-H838 | 0.229 | 0.276 | 0.295 | 0.265 | 0.203 | 1.17 | 1.12 | 1.33 | 0.893 | 0.361 | 0.926 | 1.01 | 0.891 | 1.01 | 0.8 | 0.902 | 1.02 | 0.914 | 0.957 | 0.818
